biological target: T1, Recombinant autotaxin (Homo sapiens, UniProt Q13822); assay: Autotaxin assay (Amplex Red, LPC substrate); type: biochemical; details: recombinant autotaxin, LPC substrate, Amplex Red detection; values given as upper bounds
T1 construct: made in house; host or cells: Hi5 insect cells (baculovirus)
Procedure, shortened: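 Recombinant autotaxin (Hi5 baculovirus, 16 ng) pre-incubated with compound 30 min at 22° C, then reacted with 75 μM egg LPC for 90 min at 37° C. Choline released is coupled to H2O2 and Amplex Red fluorescence (ex 485/em 612 nm). IC50 from ten 1:3 dilutions from 30 μM, duplicates, normalised to 500 μM C14 LPA.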

SMILES	IC50 [µM]
O=C(/C=C/c1c[nH]cn1)N1CCN(C2CCN(C(=O)CCc3ccc(C(F)(F)F)cc3)CC2)CC1 [Compound 58, (E)-3-(3H-Imidazol-4-yl)-1-(4-{1-[3-(4-trifluoromethyl-phenyl)-propionyl]-piperidin-4-yl}-piperazin-1-yl)-propenone]	< 10
O=C(OCc1cc(C(F)(F)F)ccc1F)N1CCC(N2CCN(C(=O)c3ccc4[nH]nnc4c3)CC2)CC1 [Compound 74, 4-[4-(1H-Benzotriazole-5-carbonyl)-piperazin-1-yl]-piperidine-1-carboxylic acid 2-fluoro-5-trifluoromethyl-benzyl ester]	< 10
O=C(OCc1cc(C(F)(F)F)cc(C(F)(F)F)c1)N1CCN(C2CCN(S(=O)(=O)c3ccc4[nH]c(=O)sc4c3)CC2)CC1 [Compound 153, 4-[1-(2-Oxo-2,3-dihydro-benzothiazole-6-sulfonyl)-piperidin-4-yl]-piperazine-1-carboxylic acid 3,5-bis-trifluoromethyl-benzyl ester]	< 10
O=C(CCc1ccc(C(F)(F)F)cc1)N1CCC(N2CCN(C(=O)c3cccc(-c4ncc[nH]4)c3)CC2)CC1 [Compound 60, 1-(4-{4-[3-(1H-Imidazol-2-yl)-benzoyl]-piperazin-1-yl}-piperidin-1-yl)-3-(4-trifluoromethyl-phenyl)-propan-1-one]	< 30
O=C(OCc1ccc(OC(F)(F)F)c(Cl)c1)N1CCN(C2CCN(C(=O)c3ccc4[nH]nnc4c3)CC2)CC1 [Compound 101, 4-[1-(1H-Benzotriazole-5-carbonyl)-piperidin-4-yl]-piperazine-1-carboxylic acid 3-chloro-4-trifluoromethoxy-benzyl ester]	< 1
O=C(OCc1ccc(OC(F)(F)F)cc1)N1CCN(C2CCN(C(=O)c3ccc4[nH]nnc4c3)CC2)CC1 [Compound 47, 4-[1-(1H-Benzotriazole-5-carbonyl)-piperidin-4-yl]-piperazine-1-carboxylic acid 4-trifluoromethoxy-benzyl ester]	< 1
O=C(CCc1ccc(C(F)(F)F)cc1)N1CCN(C2CCN(C(=O)c3ccc4[nH]nnc4c3)CC2)CC1 [Compound 32, 1-{4-[1-(1H-Benzotriazole-5-carbonyl)-piperidin-4-yl]-piperazin-1-yl}-3-(4-trifluoromethyl-phenyl)-propan-1-one]	< 1
O=C(OCc1ccc(Cl)cc1F)N1CCC(NC2CCN(C(=O)c3ccc4[nH]nnc4c3)CC2)C1 (stereo not shown) [Compound 63, 3-[1-(1H-Benzotriazole-5-carbonyl)-piperidin-4-ylamino]-pyrrolidine-1-carboxylic acid 4-chloro-2-fluoro-benzyl ester]	< 10
O=C(OCc1ccc(Cl)cc1F)N1CCC(N2CCN(C(=O)c3ccc4[nH]nnc4c3)CC2)CC1 [Compound 62, 4-[4-(1H-Benzotriazole-5-carbonyl)-piperazin-1-yl]-piperidine-1-carboxylic acid 4-chloro-2-fluoro-benzyl ester]	< 1
O=C(CC(=O)N1CCC(N2CCN(C(=O)c3ccc4[nH]nnc4c3)CC2)CC1)c1ccc(C(F)(F)F)cc1 [Compound 164, 1-{4-[4-(1H-Benzotriazole-5-carbonyl)-piperazin-1-yl]-piperidin-1-yl}-3-(4-trifluoromethyl-phenyl)-propane-1,3-dione]	< 10
O=C(OCc1ccc(F)c(C(F)(F)F)c1)N1CCN(C2CCN(C(=O)c3ccc4[nH]nnc4c3)CC2)CC1 [Compound 100, 4-[1-(1H-Benzotriazole-5-carbonyl)-piperidin-4-yl]-piperazine-1-carboxylic acid 4-fluoro-3-trifluoromethyl-benzyl ester]	< 1
O=C(OC1(c2cc(C(F)(F)F)cc(C(F)(F)F)c2)CC1)N1CCN(C2CCN(C(=O)c3ccc4[nH]nnc4c3)CC2)CC1 [Compound 178, 4-[1-(1H-Benzotriazole-5-carbonyl)-piperidin-4-yl]-piperazine-1-carboxylic acid 1-(3,5-bis-trifluoromethyl-phenyl)-cyclopropyl ester]	< 1
O=C(NC1CCC(N2CCN(C(=O)OCc3ccc(SC(F)(F)F)cc3)CC2)CC1)c1ccc2[nH]nnc2c1 (stereo not shown) [Compound 188, 4-{4-[(1H-Benzotriazole-5-carbonyl)-amino]-cyclohexyl}-piperazine-1-carboxylic acid 4-trifluoromethylsulfanyl-benzyl ester]	< 10
O=C(OCc1ccc(OC(F)(F)F)c(F)c1)N1CCN(C2CCN(C(=O)c3ccc4[nH]nnc4c3)CC2)CC1 [Compound 118, 4-[1-(1H-Benzotriazole-5-carbonyl)-piperidin-4-yl]-piperazine-1-carboxylic acid 3-fluoro-4-trifluoromethoxy-benzyl ester]	< 1
O=C(OCc1cc(C(F)(F)F)cc(C(F)(F)F)c1)N1CCN(C2CCN(C(=O)c3ccc4[nH]nnc4c3)CC2)C(=O)C1 [Compound 184, 4-[1-(1H-Benzotriazole-5-carbonyl)-piperidin-4-yl]-3-oxo-piperazine-1-carboxylic acid 3,5-bis-trifluoromethyl-benzyl ester]	< 1

Next, values leading:

IC50 [µM]	SMILES
< 1	O=C(OCc1ccc(Cl)cc1Cl)N1CCN(C2CCN(C(=O)c3ccc4[nH]nnc4c3)CC2)CC1 [Compound 46, 4-[1-(1H-Benzotriazole-5-carbonyl)-piperidin-4-yl]-piperazine-1-carboxylic acid 2,4-dichloro-benzyl ester]
< 10	CC1=NN(c2ccc(NC(=O)C3CC(=O)N(C4CCN(C(=O)OCc5cc(Cl)cc(Cl)c5)CC4)C3)cc2)C(=O)C1 (stereo not shown) [Compound 56, 4-{4-[4-(3-Methyl-5-oxo-4,5-dihydro-pyrazol-1-yl)-phenylcarbamoyl]-2-oxo-pyrrolidin-1-yl}-piperidine-1-carboxylic acid 3,5-dichloro-benzyl ester]
< 1	O=C(OCc1cc(F)c(F)c(Cl)c1)N1CCN(C2CCN(C(=O)c3ccc4[nH]nnc4c3)CC2)CC1 [Compound 116, 4-[1-(1H-Benzotriazole-5-carbonyl)-piperidin-4-yl]-piperazine-1-carboxylic acid 3-chloro-4,5-difluoro-benzyl ester]
< 10	Cc1ccc(COC(=O)N2CCN(C3CCN(C(=O)c4ccc5[nH]nnc5c4)CC3)CC2)cc1C(F)(F)F [Compound 119, 4-[1-(1H-Benzotriazole-5-carbonyl)-piperidin-4-yl]-piperazine-1-carboxylic acid 4-methyl-3-trifluoromethyl-benzyl ester]
< 1	O=C(OCc1ccc(Cl)c(F)c1)N1CCN(C2CCN(C(=O)c3ccc4[nH]nnc4c3)CC2)CC1 [Compound 117, 4-[1-(1H-Benzotriazole-5-carbonyl)-piperidin-4-yl]-piperazine-1-carboxylic acid 4-chloro-3-fluoro-benzyl ester]
< 30	O=C(NCCc1cccnc1)C1CC(=O)N(C2CCN(C(=O)OCc3cc(Cl)cc(Cl)c3)CC2)C1 (stereo not shown) [Compound 30, 4-[2-Oxo-4-(2-pyridin-3-yl-ethylcarbamoyl)-pyrrolidin-1-yl]-piperidine-1-carboxylic acid 3,5-dichloro-benzyl ester]
< 10	O=C(NCCc1c[nH]cn1)C1CC(=O)N(C2CCN(C(=O)OCc3cc(Cl)cc(Cl)c3)CC2)C1 (stereo not shown) [Compound 53, 4-{4-[2-(1H-Imidazol-4-yl)-ethylcarbamoyl]-2-oxo-pyrrolidin-1-yl}-piperidine-1-carboxylic acid 3,5-dichloro-benzyl ester]

Source: patent US9452997B2, “Piperidine and piperazine derivatives as autotaxin inhibitors” (Merck Patent GmbH, priority 2009, dated 2016)
